Experimental data published in patent US11384066B1, “Heterocyclic compounds useful as aurora a selective inhibitors” (Jacobio Pharmaceuticals Co., Ltd., priority 2020, dated 2022).

Key:
Aurora B = Aurora B (Homo sapiens (Human), UniProt Q96GD4); experiment: Aurora B kinase assay (mobility shift assay); assay type: biochemical; details: ratio of Aurora B IC50 to Aurora A IC50
Procedure: (§1) Example A: Evaluation of Aurora a and Aurora B Inhibitory Effect—Kinase Assay
(§2) The inhibitory activities of a test compound against Aurora A and Aurora B were measured according to the following method.
(§3) The IC50 value of Aurora A and Aurora B kinase was performed by Sundia MediTech Co. Ltd. using Mobility shift assay.
(§4) • (1) Prepare a 1× kinase buffer [50 mM 4-(2-hydroxyethyl)-1-piperazineethanesulfonic acid (HEPES), PH 7.5, 0.01% Brij-35, 10 mM MgCl2, 2 mM dithiothreitol (DTT)]. • (2) Prepare compound:
(§5) The testing compound was dissolved with DMSO. The testing compound was diluted up to 100× final concentration in a 384-well plate. Transfer 250 nL of the compound dilution to a 384-well assay plate using Echo 550. 100% DMSO of 250 nL was added to the negative control well and the positive control well. • (3) Prepare a 2.5× enzyme solution using the above 1× kinase buffer. • (4) Add 10 μL of the 2.5× enzyme solution to the compound well and the positive control well of the 384-well assay plate. Add 10 μL of the 1× kinase buffer to the negative control well. • (5) The 384-well plate was centrifuged at 1000 rpm for 30 seconds and incubated at room temperature for 10 min. • (6) A mixture of ATP and Kinase substrate 21 with a final concentration of 25/15× was prepared by the 1× kinase buffer. • (7) Add 15 μL of the mixture of 25/15×ATP and kinase substrate solution 21 to start reaction. • (8) The 384-well plate was centrifuged at 1000 rpm for 30 seconds and incubated at room temperature. • (9) 30 μL of the stop and detection buffer was added to stop the kinase reaction and centrifuged at 1000 rpm for 30 seconds. • (10) Collect data on Caliper EZ ReaderII. Data Analysis:
(§6) Conversion %_sample is conversion rate data of samples. Conversion %_min is mean value of negative control (conversion rate data without enzyme activation). Conversion %_max is mean positive control (conversion rate data without compound).
(§7) The log of concentration is on the X axis, and the percentage inhibition is on the Y axis. Fit the Quantitative effect curves with log (inhibitor) vs. response—Variable slope in GraphPad Prism5 obtain IC50 values. Equation used is Y=Bottom+(Top−Bottom)/(1+10^((Log IC50−X)*HillSlope)).

PK in rat = assay type: in vivo; details: rat, plasma, SD male rats; for clearance / Vd: IV: 3 mg/kg; for Vd: read-out: Vss; for AUC(0-t) / half-life / Cmax: PO: 10 mg/kg; for bioavailability: PO: 10 mg/kg vs IV: 3 mg/kg; for Cmax: read-out: Cmax
Procedure: The compounds were dissolved into 10% DMSO, 30% PEG400, and 60% saline to obtain a solution. SD male rats were given the compound orally and intravenously. Then plasma samples were collected at 0 hour (pre-dose), 0.25, 0.5, 1, 2, 4, 7, 24 hours post-dose. Plasma drug concentration was detected by LC-MS/MS. Pharmacokinetic parameters were calculated using WinNonlin's software with non-compartmental model.

NCI-H2171 cells = experiment: Cell proliferation assay (CellTiter-Glo), NCI-H2171; assay type: cell-based; details: Homo sapiens, NCI-H2171, 120 h, 5 days
Procedure: (§8) Example B: Cell Proliferation Assay
(§9) NCI-H2171 and NCI-H446 cell proliferation analysis were conducted by CellTiter-Glo (Promega, Cat #G1111). The cells will be harvested respectively during the logarithmic growth period and counted with hemocytometer. […] Adjust NCI-H2171 and NCI-H446 cells concentrations to 1.0×10^5 cells/mL with complete medium (RPMI-1640 medium supplemented with 10% (v/v) fetal bovine serum). 100 μL/cell suspensions were added to 96-well plates, and the final cell densities were 1.0×10^4 cells/well. The plate will be cultured overnight in 5% CO2 and 95% humidity at 37° C. The next day, the test compound was dissolved in DMSO as stock solution. Then the different concentrations of compound were added into 96-well plates. The plates will be cultured for 5 days, then measured by means of CellTiter-Glo assay. 50 μL/cell CellTiter-Glo reagent was added into 96-well plates. Shock incubation for 5 min and then stand incubation for 10 min at room temperature. Record the Luminosity values using an microplate spectrophotometer (Spark, Tecan). Fit the data using GraphPad 8.0 and obtain IC50 values.
(§10) Formula: Survival (%)=(Lumtest−Lummedia control)/(Lumcell control−Lummedia control)×100%

NCI-H446 cells = experiment: Cell proliferation assay (CellTiter-Glo), NCI-H446; assay type: cell-based; details: Homo sapiens, NCI-H446, 120 h, 5 days
Procedure: as §8, §9, §10

Aurora A = Aurora A (Homo sapiens (Human), UniProt O14965); experiment: Aurora A kinase assay (mobility shift assay); assay type: biochemical
Chain of Aurora A (O14965 whole entry): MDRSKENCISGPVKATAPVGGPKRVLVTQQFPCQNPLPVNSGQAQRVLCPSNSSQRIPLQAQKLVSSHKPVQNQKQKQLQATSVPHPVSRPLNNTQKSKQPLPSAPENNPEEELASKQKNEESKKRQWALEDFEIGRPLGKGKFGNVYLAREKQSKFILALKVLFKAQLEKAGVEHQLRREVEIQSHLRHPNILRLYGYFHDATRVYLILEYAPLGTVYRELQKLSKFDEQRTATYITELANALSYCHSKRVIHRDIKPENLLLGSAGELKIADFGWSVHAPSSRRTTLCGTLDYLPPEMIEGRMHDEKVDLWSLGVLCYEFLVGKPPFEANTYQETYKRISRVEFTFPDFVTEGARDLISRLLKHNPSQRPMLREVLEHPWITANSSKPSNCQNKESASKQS
Procedure: as §1, §2, §3, §4, §5, §6, §7

[1] = system: NCI-H446 human small cell lung cancer xenograft; experiment: In vivo anti-tumor efficacy, NCI-H446 xenograft model; parameters: species or system BALB/c nude mice; details: 15 mg/kg po., BID × 10days, QD × 19days, treatment 29 days, Table C does not say which xenograft (NCI-H446 or NCI-H69); for TV (mm^3): mean ± sem
Procedure: This study is to examine the anti-tumor efficacy of test compounds in NCI-H446 and NCI-H69 human small cell lung cancer xenograft model in BALB/c nude mice. Each mouse was inoculated subcutaneously at the right flank region with NCI-H446 (3×10^6) and NCI-H69 cells (5×10^6) in 0.1 mL of PBS and Matrigel (1:1) for tumor development. The mouse were randomized according to tumor size and weight, the treatment began when the mean tumor size reached 100-200 mm^3. Anti-tumor activity was assessed according to relative tumor inhibition rate (TGI).
Tumor volumes were measured in two dimensions using a caliper, and the volume was expressed in mm^3 using the formula: V=0.5 a×b^2 where a and b are the long and short diameters of the tumor, respectively. Statistical analysis of difference in tumor volume among the groups were performed using one-way ANOVA. All data was analyzed using SPSS 22.0 software, p<0.05 was considered to be statistically significant.

Chain of Aurora B (Q96GD4 whole entry): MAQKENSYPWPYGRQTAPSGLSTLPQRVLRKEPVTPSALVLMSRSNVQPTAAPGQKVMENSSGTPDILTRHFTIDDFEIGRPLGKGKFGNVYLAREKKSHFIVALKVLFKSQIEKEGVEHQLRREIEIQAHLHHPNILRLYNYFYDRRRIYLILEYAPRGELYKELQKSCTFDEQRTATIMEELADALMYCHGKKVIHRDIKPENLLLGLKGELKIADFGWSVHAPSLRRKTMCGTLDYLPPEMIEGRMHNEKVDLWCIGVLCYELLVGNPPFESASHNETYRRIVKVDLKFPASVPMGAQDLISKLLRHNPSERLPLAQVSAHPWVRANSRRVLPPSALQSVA

Row | Structure (SMILES) | IC50 Ratio Aur B/Aur A (Aurora B) | clearance (PK in rat) | Vd (PK in rat) | AUC(0-t) (PK in rat) | half-life (PK in rat) | bioavailability (PK in rat) | Cmax (PK in rat) | IC50 (NCI-H2171 cells) | IC50 (NCI-H446 cells) | IC50 (Aurora A) | TGITV(%) [1] | TV (mm^3) [1]
1 | Cc1cc(Nc2nc(C[C@@]3(C(=O)O)CCN(Cc4cccc(Cl)c4F)[C@H](C)C3)ccc2F)[nH]n1 [Example 5, (2R,4R)-1-(3-chloro-2-fluorobenzyl)-4-((5-fluoro-6-((3-methyl-1H-pyrazol-5-yl)amino)pyridin-2-yl)methyl)-2-methylpiperidine-4-carboxylic acid] | 1311 | 2.74 mL/min/kg | 0.56 L/kg | 179 µg·h/mL | 4.25 h | 168% | 26600 ng/mL | 30 nM | 80 nM | 0.59 nM | 98% | 27 ± 5 mm^3
2 | Cc1cc(Nc2cc(Cl)c(F)c(C[C@@]3(C(=O)O)CCN(Cc4cccc(Cl)c4F)[C@H](C)C3)n2)n[nH]1 [Example 72, (2R,4R)-1-(3-chloro-2-fluorobenzyl)-4-((4-chloro-3-fluoro-6-((5-methyl-1H-pyrazol-3-yl)amino)pyridin-2-yl)methyl)-2-methylpiperidine-4-carboxylic acid] | 582 | – | – | – | – | – | – | 23 nM | 56 nM | 0.64 nM | 89% | 176 ± 25 mm^3
3 | Cc1cc(Nc2cc(C)c(F)c(C[C@@]3(C(=O)O)CCN(Cc4c(F)ccc(Cl)c4F)[C@H](C)C3)n2)n[nH]1 [Example 50, (2R,4R)-1-(3-chloro-2,6-di-fluorobenzyl)-4-((3-fluoro-4-methyl-6-((5-methyl-1H-pyra-zol-3-yl)amino)pyridin-2-yl)-methyl)-2-methylpiperidine-4-carboxylic acid] | 845 | 1.45 mL/min/kg | 0.26 L/kg | 173 µg·h/mL | 3.62 h | 140% | 16100 ng/mL | 25 nM | 73 nM | 0.52 nM | – | –
4 | Cc1cc(Nc2nc(C[C@@]3(C(=O)O)CCN(Cc4cccc(Cl)c4F)[C@H](C)C3)cc(C)c2F)n[nH]1 [Example 78, (2R,4R)-1-(3-chloro-2-fluorobenzyl)-4-((5-fluoro-4-methyl-6-((5-methyl-1H-pyrazol-3-yl)amino)pyridin-2-yl)methyl)-2-methylpiperidine-4-carboxylic acid] | 1219 | 0.585 mL/min/kg | 0.22 L/kg | 236 µg·h/mL | 4.61 h | 85.8% | 28900 ng/mL | 13 nM | 32 nM | 0.37 nM | 96% | 65 ± 14 mm^3
5 | Cc1cc(Nc2cc(C)c(F)c(C[C@@]3(C(=O)O)CCN(Cc4cccc(Cl)c4F)[C@H](C)C3)n2)n[nH]1 [Example 49, (2R,4R)-1-(3-chloro-2-fluorobenzyl)-4-((3-fluoro-4-methyl-6-((5-methyl-1H-pyraz-ol-3-yl)amino)pyridin-2-yl)methyl)-2-methylpiperidine-4-carboxylic acid] | 443 | 1.05 mL/min/kg | 0.22 L/kg | 202 µg·h/mL | 2.95 h | 127% | 21000 ng/mL | 18 nM | 24 nM | 0.7 nM | 90% | 160 ± 26 mm^3
6 | Cc1cc(Nc2ccc(F)c(C[C@@]3(C(=O)O)CCN(Cc4c(F)ccc(Cl)c4F)[C@H](C)C3)n2)n[nH]1 [Example 6, (2R,4R)-1-(3-chloro-2,6-difluorobenzyl)-4-((3-fluoro-6-((5-methyl-1H-pyrazol-3-yl)amino)pyridin-2-yl)methyl)-2-methylpiperidine-4-carboxylic acid] | 6112 | 0.67 mL/min/kg | 0.18 L/kg | 215 µg·h/mL | 6.3 h | 86% | 34900 ng/mL | 55 nM | 103 nM | 0.33 nM | – | –
